Assay results reported in article PMC7575490 (Investigational New Drugs, 2020).
Converted amounts (≈) assume the structure as drawn.

Tests used:
[1] = Part 2 three-period crossover pharmacokinetics / relative bioavailability of A, B, C; format: in vivo, human
Description: This was a randomized, positive control, open, single-center study with a three-cycle crossover design in healthy Chinese subjects. […] The wash-out period was 7 days. The method employed for tablet administration was consistent with that in Part 1. […] After the suspension was comsumed by subjects,the container was rinsed with 40, 80, and 80 mL of water in turn and took them down.

[2] = system: EGFR; parameters: method as in PMID 27902470; details: previous pharmacodynamic study; read-out: IC50, EGFR inhibition; cited from earlier work
[3] = system: ErbB2; parameters: method as in PMID 27902470; details: previous pharmacodynamic study; read-out: IC50, ErbB2 inhibition; cited from earlier work
[4] = cited from earlier work
[5] = Part 1 single ascending dose pharmacokinetics in healthy Chinese subjects; details: for AUC0-t / AUC0-∞ / Cmax / MRT0-t / MRT0-∞ / V/F / t1/2 / λz / Tmax: analyte selatinib; for AUC0-t / AUC0-∞ / Cmax / MRT0-t / MRT0-∞ / V/F / t1/2 / λz: mean ± SD; for Tmax: median (min-max)
Description: This was a single-center, randomized, double-blind, placebo-controlled, single ascending study involving healthy Chinese subjects. […] Investigators and subjects were blinded to the group allociations. Treatment identity was concealed by providing drug doses and placebo of identical appearance and in identical packageing. The starting dose was calculated according to the no observed adverse effect level (NOAEL) for animals.[[[25], [26]^] […] The starting dose should be 1/10 of the human NOAEL(i.e., starting dose was 50 or 72 mg). This dose was used as a threshold guide for dose escalations. To minimize risk while providing some inhibitory effects, 50 mg was recommended for use as the starting dose. Dose escalation was designed according to the modified-Fibonacci sequence. A total of 7 dose groups were included. […] Each group consisted of 50% males and females. In addition to the 500 mg group, 2 subjects in each group were administered a single dose of placebo, one for each gender. Only 2 subjects were initially enrolled in all dose groups. Follow-up subjects were enrolled on the premise that the drug was safely tolerated at the administration dose. When all subjects in the current dose group completed the trial and this dose was deemed as tolerable, the next dose group was initiated.
Tablets were administered with 240 mL of tap water at ambient temperature. Consumption of additional water was not permitted within 1 h before and after drug administration. Light meals were served at 4 and 10 h after each dose, with identical standardized diets provided across all dosing periods.
Blood samples were collected into heparinized vacutainer tubes and gently mixed. Thereafter,plasma was separated by centrifugation (3000 rpm at 4 °C for 10 min) within 1 h of sample collection and stored frozen at −80 °C prior to analysis.
A P value<0.05 was considered to indicate statistical significance. […] Further, the logarithm of the dose and the regression coefficient and its 95%CI were calculated.

[6] = Part 1, across single doses 50–500 mg
[7] = Part 1, single 50 mg dose of selatinib (n = 4)
[8] = Part 1, single 100 mg dose of selatinib (n = 10)
[9] = Part 1, single 200 mg dose of selatinib (n = 10)
[10] = Part 1, single 250 mg dose of selatinib (n = 8)
[11] = Part 1, single 300 mg dose of selatinib (n = 10)
[12] = Part 1, single 350 mg dose of selatinib (n = 6)
[13] = Part 1, single 500 mg dose of selatinib (n = 4)
[14] = Part 2, average bioequivalence, logarithmic transformation, single 500 mg dose, suspension B vs tablets A, analyte as labelled
[15] = Part 2, single 500 mg dose of A (selatinib ditosilate tablets), n = 6, analyte as labelled, mean ± SD
[16] = Part 2, single 500 mg dose of B (selatinib ditosilate dry suspension), n = 6, analyte as labelled, mean ± SD

Structure (SMILES): CS(=O)(=O)CCNCc1ccc(-c2ccc3ncnc(Nc4ccc(OCc5cccc(F)c5)c(Cl)c4)c3c2)o1 [lapatinib, reference compound]
- λz ([1]; Part 2, single 500 mg dose of C (lapatinib ditosylate tablets), n = 6, mean ± SD): 5.70 ± 1.26 ×10^−2 /h
- AUC0-t ([1]; male, human, in vivo, 500 mg): 5520 ± 2190 ng·h/mL
- AUC(0-inf) ([1]; male, human, in vivo, 500 mg): 5540 ± 2200 ng·h/mL
- Cmax ([1]; male, human, in vivo, 500 mg): 400 ± 144 ng/mL
- MRT inf ([1]; male, human, in vivo, 500 mg): 15.6 ± 2.76 h
- Tmax ([1]; male, human, in vivo, 500 mg): 4.0 (2.0–5.0) h
- half-life ([1]; male, human, plasma, oral, 500 mg): 12.7 ± 3.05 h
- aqueous solubility [4]: 7 µg/mL (≈ 12 µM)

Structure (SMILES): C[S+]([O-])CCNCc1ccc(-c2ccc3ncnc(Nc4ccc(OCc5cccc(F)c5)c(Cl)c4)c3c2)o1 (stereo not shown) [selatinib]
- mean selatinib peak plasma concentration [5, 6]: 69.4 to 494 ng/mL
- median peak time [5, 6]: 3.5 to 4.5 h
- AUC0-t [5, 7]: 969 ± 161 ng·h/mL
- AUC0-∞ [5, 7]: 983 ± 165 ng·h/mL
- Cmax [5, 7]: 69.4 ± 18.5 ng/mL
- MRT0-t [5, 7]: 15.2 ± 3.1 h
- MRT0-∞ [5, 7]: 16.4 ± 3.5 h
- V/F [5, 7]: 1193.3 ± 321.8 L
- t1/2 [5, 7]: 15.8 ± 2.98 h
- λz [5, 7]: 4.49 ± 0.788 ×10^−2 1/h
- Tmax [5, 7]: 4.0 (3.0–6.0) h
- AUC0-t [5, 8]: 2664 ± 1039 ng·h/mL
- AUC0-∞ [5, 8]: 2688 ± 1058 ng·h/mL
- Cmax [5, 8]: 178 ± 48.8 ng/mL
- MRT0-t [5, 8]: 15.9 ± 2.4 h
- MRT0-∞ [5, 8]: 16.7 ± 2.8 h
- V/F [5, 8]: 853.2 ± 279.8 L
- t1/2 [5, 8]: 14.3 ± 2.58 h
- λz [5, 8]: 4.98 ± 0.917 ×10^−2 1/h
- Tmax [5, 8]: 4.0 (4.0–6.0) h
- AUC0-t [5, 9]: 3708 ± 1465 ng·h/mL
- AUC0-∞ [5, 9]: 3735 ± 1480 ng·h/mL
- MRT0-t [5, 9]: 16.4 ± 1.7 h
- MRT0-∞ [5, 9]: 17.1 ± 1.9 h
- V/F [5, 9]: 1247.0 ± 522.4 L
- t1/2 [5, 9]: 14.0 ± 1.79 h
- λz [5, 9]: 5.01 ± 0.651 ×10^−2 1/h
- Tmax [5, 9]: 4.5 (4.0–8.0) h
- AUC0-t [5, 10]: 5319 ± 3248 ng·h/mL
- AUC0-∞ [5, 10]: 5368 ± 3274 ng·h/mL
- Cmax [5, 10]: 329 ± 211 ng/mL
- MRT0-t [5, 10]: 17.1 ± 1.5 h
- MRT0-∞ [5, 10]: 18.0 ± 1.8 h
- V/F [5, 10]: 1393.7 ± 861.8 L
- t1/2 [5, 10]: 15.3 ± 1.67 h
- λz [5, 10]: 4.58 ± 0.495 ×10^−2 1/h
- Tmax [5, 10]: 4.0 (4.0–5.0) h
- AUC0-t [5, 11]: 5904 ± 2428 ng·h/mL
- AUC0-∞ [5, 11]: 5958 ± 2461 ng·h/mL
- Cmax [5, 11]: 352 ± 147 ng/mL
- MRT0-t [5, 11]: 17.4 ± 2.3 h
- MRT0-∞ [5, 11]: 18.3 ± 2.6 h
- V/F [5, 11]: 1380.6 ± 1006.1 L
- t1/2 [5, 11]: 15.1 ± 1.09 h
- λz [5, 11]: 4.60 ± 0.334 ×10^−2 1/h
- Tmax [5, 11]: 4.5 (4.0–6.0) h
- AUC0-t [5, 12]: 7072 ± 2001 ng·h/mL
- AUC0-∞ [5, 12]: 7115 ± 1995 ng·h/mL
- Cmax [5, 12]: 494 ± 156 ng/mL
- MRT0-t [5, 12]: 16.0 ± 2.6 h
- MRT0-∞ [5, 12]: 16.7 ± 3.0 h
- V/F [5, 12]: 1059.1 ± 425.1 L
- t1/2 [5, 12]: 13.8 ± 2.19 h
- λz [5, 12]: 5.14 ± 0.765 ×10^−2 1/h
- Tmax [5, 12]: 4.5 (2.0–5.0) h
- AUC0-t [5, 13]: 7142 ± 2463 ng·h/mL
- AUC0-∞ [5, 13]: 7191 ± 2482 ng·h/mL
- Cmax [5, 13]: 486 ± 144 ng/mL
- MRT0-t [5, 13]: 15.5 ± 0.5 h
- MRT0-∞ [5, 13]: 16.2 ± 0.5 h
- V/F [5, 13]: 1650.8 ± 652.2 L
- t1/2 [5, 13]: 14.8 ± 0.152 h
- λz [5, 13]: 4.68 ± 0.0482 ×10^−2 1/h
- Tmax [5, 13]: 3.5 (2.0–5.0) h
- linearity of pharmacokinetics ([5]; dose range of 50–500 mg): conformed with linear pharmacokinetics
- B/A% of AUC0-t [1, 14]: 101.06%
- B/A% of AUC0-∞ [1, 14]: 101.09%
- B/A% of Cmax [1, 14]: 94.53%
- AUC0-t [1, 15]: 9280 ± 3800 ng·h/mL
- AUC0-∞ [1, 15]: 9400 ± 3910 ng·h/mL
- Cmax [1, 15]: 601 ± 242 ng/mL
- MRT0-∞ [1, 15]: 19.2 ± 3.16 h
- t1/2 [1, 15]: 15.6 ± 2.47 h
- λz [1, 15]: 4.52 ± 0.682 ×10^−2 /h
- Tmax ([1]; Part 2, single 500 mg dose of A (selatinib ditosilate tablets), n = 6, analyte as labelled, median (min-max)): 5.0 (4.0–6.0) h
- V/F ([1]; Part 2, single 500 mg dose of A (selatinib ditosilate tablets), n = 6, mean ± SD): 1370 ± 586 L
- AUC0-t [1, 16]: 8780 ± 1350 ng·h/mL
- AUC0-∞ [1, 16]: 8890 ± 1410 ng·h/mL
- Cmax [1, 16]: 556 ± 191 ng/mL
- MRT0-∞ [1, 16]: 18.9 ± 2.87 h
- t1/2 [1, 16]: 16.2 ± 1.87 h
- λz [1, 16]: 4.32 ± 0.453 ×10^−2 /h
- Tmax ([1]; Part 2, single 500 mg dose of B (selatinib ditosilate dry suspension), n = 6, analyte as labelled, median (min-max)): 4.5 (3.0–6.0) h
- V/F ([1]; Part 2, single 500 mg dose of B (selatinib ditosilate dry suspension), n = 6, mean ± SD): 1330 ± 192 L
